Measured values as given in patent US4513001A, “β-Adrenergic 1-[1-benzimidazolyl]-N-[2-(4-hydroxy-3-methoxy-phenyl)-2-hydroxy-ethyl]- 3-amino butane and salts and hydrates thereof” (priority 1982, dated 1985).
Read-outs that look alike come from different tables or passages of the source.

Assays:
[1] = test system: isolated trachea preparation of the guinea pig; test: Relaxant activity on isolated tracheal muscle in vitro; settings: 6 preparations
Protocol: This activity was studied on an isolated trachea preparation of the guinea pig (chain of tracheal rings, according to CASTILLO and BEER. Journ. Pharmacol. Exp. Ther. 1947 90 104-109), kept alive in a KREBS solution. The effect of cumulative doses on the pressure of the preparation was recorded.
The activity of the substance was expressed by the value of the molar CD50 (decontracting concentration 50=concentration giving 50% of maximum relaxation), of which the negative log. is the value pD2, and by the intrinsic activity corresponding to maximum effect.
These values were determined in parallel for the compound A and Salbutamol, on 6 preparations for each.

histamine bronchospasm [2] = test: Bronchodilator activity in vivo, anesthetized guinea pig, intravenous (inhibition of histamine bronchospasm, KONZETT); settings: i.v.
Protocol: (§1) 1.2.1 In the anesthesized guinea pig (method of KONZETT. Arch. Exp. Pathol. Pharmakol. 1940 195 71-74)
(§2) A bronchospasm was caused by intravenous histamine injection. The bronchodilator activity was shown by partial or total inhibition of this spasm.
The product studied was administered intravenously or intraduodenaly and histamine injected then at different times to follow the delay in appearance and the duration of the inhibiting effect of the treatment. […]

histamine bronchospasm [3] = test: Bronchodilator activity in vivo, anesthetized guinea pig, intraduodenal (inhibition of histamine bronchospasm, KONZETT)
Protocol: as §1, §2
The product studied was administered intravenously or intraduodenaly and histamine injected then at different times to follow the delay in appearance and the duration of the inhibiting effect of the treatment.
The results below are the averages of the values obtained in 10 animals.

histamine bronchospasm [4] = test: Bronchodilator activity in vivo, anesthetized dog, intraduodenal (intratracheal pressure, histamine bronchospasm)
Protocol: 1.2.2. In the anesthesized dog (recording of the intratracheal pressure)
A bronchospasm was caused by intravenous injection and histamine. The bronchodilator activity was shown by partial or total inhibition of this spasm.
The products studied were administered intraduodenally and the histamine injected then at various times to follow the effect of the treatment.
The results borne in the table below are the averages of the values obtained in 3 animals for each product.

rat uterus preparation = test: Uterus relaxing activity in vitro; settings: Rattus norvegicus, 7 preparations, read-out: CE50 (effective concentration 50, inhibiting by 50% the control contraction)
Description: This activity was investigated on a rat uterus preparation, put into estrus by cutaneous injection of oestradiol benzoate. The uterine horns were kept alive in a RINGER-LOCKE solution, modified by GADDUM and VOGT.
Their activity is expressed by the value of the molar CE50 (effective concentration 50, inhibiting by 50% the control contraction induced by the contracting agent).
Each CE50 indicated below was obtained from the results of 7 preparations.

[5] = test system: isolated right atrium preparation of the guinea pig; test: Activity on the heart rate in vitro, isolated right atrium
Protocol: This action was studied on an isolated right atrium preparation of the guinea pig kept alive in a RINGER solution. The effect of cumulative doses on the heart rate was recorded. The results below are the averages of 6 preparations of the compound A, of 4 for Salbutamol

[6] = test system: heart rate and mean aortic pressure; test: Heart rate and mean aortic pressure of the anesthetised dog, intraduodenal; assay type: in vivo; settings: intraduodenal
Protocol: 3.1.1. Activity on the heart rate and on the mean aortic pressure of the anesthetisied dog
The activity of the compound A and of Salbutamol was studied on 2 batches of 3 dogs per product: one in spontaneous respiration, the other in artificial respiration; the two substances were administered intraduodenally at 3 doses: 0.008-0.025 and 0.08 mg/kg.

guinea pig trachea = test: β-stimulant specificity: guinea pig trachea before and after propranolol; settings: for EC50: Cavia porcellus, 6 preparations
Description: respiratory (guinea pig trachea, in vitro)
cardiovascular (heart rate of the dog, in vivo) by the antagonistic effect of a β-blocking product.

For `CC(C)(C)NCC(O)c1ccc(O)c(CO)c1` (stereo not drawn) [Salbutamol, reference compound], the “Maximum response (decontraction)” value [1] was 358 mg, the Emax ([1]; Cavia porcellus, Salbutamol 1.00, read-out: Intrinsic activity) was 100% and the EC50 ([1]; Cavia porcellus, read-out: CD50 (decontracting concentration 50, concentration giving 50% of maximum relaxation)) was 15 nM. For the same compound, the EC50 ([1]; Cavia porcellus, negative log of molar CD50, read-out: pD2 (converted)) was 15.1 nM, the “% inhibition in time” value (histamine bronchospasm [2]; 0.08 μg base/kg, 1 min) was 8% and the “% inhibition in time” value (histamine bronchospasm [2]; 0.08 μg base/kg, 5 min) was 2%. For the same compound, the “% inhibition in time” value (histamine bronchospasm [2]; 0.08 μg base/kg, 10 min) was 0%, the “% inhibition in time” value (histamine bronchospasm [2]; 0.08 μg base/kg, 15 min) was 1% and the “% inhibition in time” value (histamine bronchospasm [2]; 0.25 μg base/kg, 1 min) was 25%. For the same compound, the “% inhibition in time” value (histamine bronchospasm [2]; 0.25 μg base/kg, 5 min) was 6%, the “% inhibition in time” value (histamine bronchospasm [2]; 0.25 μg base/kg, 10 min) was 2% and the “% inhibition in time” value (histamine bronchospasm [2]; 0.25 μg base/kg, 15 min) was 2%. For the same compound, the “% inhibition in time” value (histamine bronchospasm [2]; 0.8 μg base/kg, 1 min) was 54%, the “% inhibition in time” value (histamine bronchospasm [2]; 0.8 μg base/kg, 5 min) was 8% and the “% inhibition in time” value (histamine bronchospasm [2]; 0.8 μg base/kg, 10 min) was 7%. The “% inhibition in time” value (histamine bronchospasm [2]; 0.8 μg base/kg, 15 min) was 2%, the “% inhibition in time” value (histamine bronchospasm [2]; 2.5 μg base/kg, 1 min) was 75% and the “% inhibition in time” value (histamine bronchospasm [2]; 2.5 μg base/kg, 5 min) was 13%. The “% inhibition in time” value (histamine bronchospasm [2]; 2.5 μg base/kg, 10 min) was 8%, the “% inhibition in time” value (histamine bronchospasm [2]; 2.5 μg base/kg, 15 min) was 4% and the “% inhibition in time” value (histamine bronchospasm [2]; 8 μg base/kg, 1 min) was 91%. The “% inhibition in time” value (histamine bronchospasm [2]; 8 μg base/kg, 5 min) was 35%, the “% inhibition in time” value (histamine bronchospasm [2]; 8 μg base/kg, 10 min) was 13% and the “% inhibition in time” value (histamine bronchospasm [2]; 8 μg base/kg, 15 min) was 8%. For the same compound, the “% inhibition in time” value (histamine bronchospasm [2]; 25 μg base/kg, 1 min) was 97%, the “% inhibition in time” value (histamine bronchospasm [2]; 25 μg base/kg, 5 min) was 78% and the “% inhibition in time” value (histamine bronchospasm [2]; 25 μg base/kg, 10 min) was 34%. The “% inhibition in time” value (histamine bronchospasm [2]; 25 μg base/kg, 15 min) was 22%, the “% inhibition in time” value (histamine bronchospasm [2]; 83 μg base/kg, 1 min) was 94% and the “% inhibition in time” value (histamine bronchospasm [2]; 83 μg base/kg, 5 min) was 81%. For the same compound, the “% inhibition in time” value (histamine bronchospasm [2]; 83 μg base/kg, 10 min) was 60%, the “% inhibition in time” value (histamine bronchospasm [2]; 83 μg base/kg, 15 min) was 55% and the “% inhibition in time” value (histamine bronchospasm [2]; 83 μg base/kg, 30 min) was 50%. For the same compound, the “% inhibition in time” value (histamine bronchospasm [2]; 83 μg base/kg, 45 min (n = 9)) was 30%, the “% inhibition in time” value (histamine bronchospasm [2]; 83 μg base/kg, 60 min (n = 9)) was 17% and the “Dose to obtain a high activity” value (histamine bronchospasm [3]) was 8 mg/kg. For the same compound, the “% inhibition in time” value (histamine bronchospasm [3]; 0.8 mg base/kg, 1 min) was 4%, the “% inhibition in time” value (histamine bronchospasm [3]; 0.8 mg base/kg, 5 min) was 18% and the “% inhibition in time” value (histamine bronchospasm [3]; 0.8 mg base/kg, 15 min) was 16%. For the same compound, the “% inhibition in time” value (histamine bronchospasm [3]; 0.8 mg base/kg, 30 min) was 16%, the “% inhibition in time” value (histamine bronchospasm [3]; 0.8 mg base/kg, 45 min) was 13% and the “% inhibition in time” value (histamine bronchospasm [3]; 0.8 mg base/kg, 60 min) was 13%. The “% inhibition in time” value (histamine bronchospasm [3]; 2.5 mg base/kg, 1 min) was 2%, the “% inhibition in time” value (histamine bronchospasm [3]; 2.5 mg base/kg, 5 min) was 14% and the “% inhibition in time” value (histamine bronchospasm [3]; 2.5 mg base/kg, 15 min) was 32%. For the same compound, the “% inhibition in time” value (histamine bronchospasm [3]; 2.5 mg base/kg, 30 min) was 34%, the “% inhibition in time” value (histamine bronchospasm [3]; 2.5 mg base/kg, 45 min) was 29% and the “% inhibition in time” value (histamine bronchospasm [3]; 2.5 mg base/kg, 60 min) was 23%. For the same compound, the “% inhibition in time” value (histamine bronchospasm [3]; 2.5 mg base/kg, 90 min) was 15%, the “% inhibition in time” value (histamine bronchospasm [3]; 2.5 mg base/kg, 120 min) was 10% and the “% inhibition in time” value (histamine bronchospasm [3]; 8 mg base/kg, 1 min) was 31%. For the same compound, the “% inhibition in time” value (histamine bronchospasm [3]; 8 mg base/kg, 5 min) was 64%, the “% inhibition in time” value (histamine bronchospasm [3]; 8 mg base/kg, 15 min) was 76% and the “% inhibition in time” value (histamine bronchospasm [3]; 8 mg base/kg, 30 min) was 72%. The “% inhibition in time” value (histamine bronchospasm [3]; 8 mg base/kg, 45 min) was 65%, the “% inhibition in time” value (histamine bronchospasm [3]; 8 mg base/kg, 60 min) was 58% and the “% inhibition in time” value (histamine bronchospasm [3]; 8 mg base/kg, 90 min) was 52%. For the same compound, the “% inhibition in time” value (histamine bronchospasm [3]; 8 mg base/kg, 120 min (n = 9 compound A, n = 8 Salbutamol)) was 37%, the “% inhibition in time” value (histamine bronchospasm [4]; 0.025 mg base/kg, 5 min) was 21% and the “% inhibition in time” value (histamine bronchospasm [4]; 0.025 mg base/kg, 20 min) was 65%. The “% inhibition in time” value (histamine bronchospasm [4]; 0.025 mg base/kg, 35 min) was 63%, the “% inhibition in time” value (histamine bronchospasm [4]; 0.025 mg base/kg, 60 min) was 61% and the “% inhibition in time” value (histamine bronchospasm [4]; 0.025 mg base/kg, 90 min) was 65%. For the same compound, the “% inhibition in time” value (histamine bronchospasm [4]; 0.08 mg base/kg, 5 min) was 8%, the “% inhibition in time” value (histamine bronchospasm [4]; 0.08 mg base/kg, 20 min) was 50% and the “% inhibition in time” value (histamine bronchospasm [4]; 0.08 mg base/kg, 35 min) was 56%. The “% inhibition in time” value (histamine bronchospasm [4]; 0.08 mg base/kg, 60 min) was 55%, the “% inhibition in time” value (histamine bronchospasm [4]; 0.08 mg base/kg, 90 min) was 52% and the EC50 (rat uterus preparation; contracting agent acetylcholine) was 5 nM. The EC50 (rat uterus preparation; contracting agent serotonine) was 8.3 nM, the “Heart rate, increase” value ([5]; 1 × 10^-4 mol) was “+110 beats per min” and the “Heart rate, maximum” value ([5]; 1 × 10^-4 mol, basal 202 (Salbutamol)) was 312 beats per min. For the same compound, the “Heart rate, increase” value ([5]; 1 × 10^-5 mol (maxi for Salbutamol)) was “+115 beats per min”, the “Heart rate, maximum” value ([5]; 1 × 10^-5 mol, basal 209 (Compound A), 202 (Salbutamol)) was 317 beats per min and the “Heart rate, increase” value ([5]; 1 × 10^-6 mol (maxi for Compound A)) was “+106 beats per min”. For the same compound, the “Heart rate, maximum” value ([5]; 1 × 10^-6 mol, basal 209 (Compound A), 202 (Salbutamol)) was 308 beats per min, the “Heart rate, increase” value ([5]; 1 × 10^-7 mol) was “+90 beats per min” and the “Heart rate, maximum” value ([5]; 1 × 10^-7 mol, basal 209 (Compound A), 202 (Salbutamol)) was 292 beats per min. For the same compound, the “Heart rate, increase” value ([5]; 1 × 10^-8 mol) was “+49 beats per min”, the “Heart rate, maximum” value ([5]; 1 × 10^-8 mol, basal 202 (Salbutamol)) was 251 beats per min and the “Heart rate, maximum cumulative effect” value ([6]; artificial respiration, 15 min after 0.025 mg/kg) was “+41 cpm”. The “Average aortic pressure, maximum cumulative effect” value ([6]; artificial respiration, 90 min after 0.08 mg/kg) was -36 mmHg, the “Heart rate, maximum cumulative effect” value ([6]; spontaneous respiration, 20 min after 0.08 mg/kg) was “+26 cpm” and the “Average aortic pressure, maximum cumulative effect” value ([6]; spontaneous respiration, 1 h after 0.08 mg/kg) was -40 mmHg. The EC50 (guinea pig trachea; read-out: CD50 before propranolol) was 11 nM, the EC50 (guinea pig trachea; propranolol 1.7×10^-8 mol, read-out: CD50 after propranolol) was 38 nM and the “Ratio of CD50” value (guinea pig trachea; after / before propranolol) was 3.5.
